Measurements published in US20250302933A1, “ATTENUATED YET IMMUNOGENICALLY POTENTIATED TUMOR EXTRACELLULAR VESICLE COMPOSITIONS AND USES THEREOF” (KOREA INSTITUTE OF SCIENCE AND TECHNOLOGY, priority 2024, published 2025).

Experiments:
cancer cells = test: Immunogenic cell death markers: calreticulin flow cytometry, HSP70/HMGB1 release Western blotting; assay type: cell-based, mouse
Procedure: (§1) Protein concentrations of the samples were quantified using a DCTM protein assay kit (5000111, Bio-Rad, Hercules, CA, USA). The samples were dissolved using radioimmunoprecipitation buffer (9806S; Cell Signaling Technology, Danvers, MA, USA) and subjected to SDS-PAGE. The samples were loaded onto a sodium dodecyl sulfate polyacrylamide gel, separated by gel electrophoresis, and transferred to a nitrocellulose membrane. The membrane was blocked with 5% skim milk and incubated overnight at 4° C. with primary antibodies against the following: Tsg101 (sc-22774; Santa Cruz, Dallas, TX, USA), YAP (sc99010), CD81 (sc-166029), ALIX (sc-53540), calnexin (ab22595; Abcam, Cambridge, United Kingdom), OVA (0220-1682; Bio-Rad), HMGB1 (ab18256; Abcam), HSP70 (ab181606; Abcam), or B-actin (4967S; Cell Signaling Technology). After washing five times (5 min each) with Tris-buffered saline containing 0.05% Tween-20 (TBS/T), the membrane was incubated with anti-mouse peroxidase (1:3000; A4416; Sigma-Aldrich) or anti-rabbit peroxidase (1:3000; A0545) secondary antibody at 20 to 25° C. for 1 hour. The membrane was then incubated with an ECL substrate (1705061, Bio-Rad) and visualized using a ChemiDoc™ Touch Imaging System (Bio-Rad).
Cells were seeded in a 6-well plate (30006; SPL Life Sciences, 5×10^5 cells/well) and treated with verteporfin in a serum-free medium for 3 hours. The cells were fixed with 0.25% paraformaldehyde for 5 minutes at 4° C. and then blocked with 3% bovine serum albumin for 15 minutes at 4° C. A calreticulin antibody (ab2907; Abcam) was added to the samples and incubated at 4° C. for 45 minutes. […] Calreticulin expression on the cell membrane was evaluated using flow cytometry gating of PI-negative cells.
To determine appropriate conditions for AI-TEV production, three types of cancer cells were treated with various doses of verteporfin in a serum-free medium and cell viability was assessed. […]

YAP = molecular target: T1, YAP (Mus musculus, UniProt P46938); test: Western blotting of YAP after verteporfin treatment; assay type: cell-based; conditions: verteporfin 24 hours
T1 construct: endogenous in cells; host or cells: E.G7-OVA, MOC2 and 4T1 mouse cancer cells
T1 sequence (P46938 whole entry): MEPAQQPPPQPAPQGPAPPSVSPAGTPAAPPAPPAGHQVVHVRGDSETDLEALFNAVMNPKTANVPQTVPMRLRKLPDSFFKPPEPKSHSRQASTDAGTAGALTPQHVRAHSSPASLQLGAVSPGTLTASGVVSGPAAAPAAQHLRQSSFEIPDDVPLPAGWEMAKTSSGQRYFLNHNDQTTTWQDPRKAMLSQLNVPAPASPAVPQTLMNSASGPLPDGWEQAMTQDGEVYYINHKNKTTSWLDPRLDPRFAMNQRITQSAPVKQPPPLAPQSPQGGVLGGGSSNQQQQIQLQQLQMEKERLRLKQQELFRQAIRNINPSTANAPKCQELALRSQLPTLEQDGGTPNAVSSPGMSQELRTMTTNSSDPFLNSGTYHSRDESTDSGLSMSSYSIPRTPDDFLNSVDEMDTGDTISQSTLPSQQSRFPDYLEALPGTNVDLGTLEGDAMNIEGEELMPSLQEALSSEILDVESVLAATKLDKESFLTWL
Procedure: as §1
In addition, the migration ability of TEV-stimulated tumor cells was evaluated using a transwell migration assay. […] E.G7-OVA cells were also evaluated using the same protocol, but due to non-adherent characteristics, invasive cells were counted in the lower wells of a transwell chamber rather than on a membrane (FIGS. 18 and 19). […] Due to the aggressive and metastatic characteristics of 4T1 cells, a matrigel coating was added to the transwell membrane for the invasion assay. […] Finally, to confirm the attenuation of the tumor-promoting properties of AI-TEV in vivo, the efficacy as a therapeutic vaccine was evaluated in a mouse model. The therapeutic vaccine was another well-studied form of tumor vaccine designed to suppress tumor growth and induce long-term antitumor memory.

E.G7-OVA cells = test: Cell viability assay (CCK-8) with verteporfin; assay type: cell-based, mouse; conditions: 24 hours
Procedure: (§2) Cells were seeded in a 96-well plate (30096; SPL Life Sciences, Pochon, South Korea) (5,000 cells/well) and treated with various doses of verteporfin in a serum-free medium for 24 hours. Cell viability was measured using Cell counting kit-8 (CCK-8) assay (CK04; Dojindo, Kumamoto, Japan), and the absorbance was measured at 450 nm using a microplate reader (SpectraMAX 340; Molecular Devices, San Jose, CA, USA).
(§3) To determine appropriate conditions for AI-TEV production, three types of cancer cells were treated with various doses of verteporfin in a serum-free medium and cell viability was assessed. E.G7-OVA cells were a derivative of EL4 mouse lymphoma cells carrying a complete copy of chicken ovalbumin (OVA) mRNA. Mouse oral cancer 2 (MOC2) cells represented an aggressive form of mouse oral squamous cell carcinoma, while 4T1 cells were triple-negative, highly invasive malignant mouse breast cancer cells. The lowest dose of verteporfin that induced effective cell death was 20 ng/ml for E.G7-OVA cells and 200 ng/ml for MOC2 and 4T1 cells and cell viability was approximately 80% for all cell types (FIGS. 2 and 3). The immunogenicity of the cell death was verified based on an increase in DAMPs after verteporfin treatment. […] Tumor cells were cultured in a serum-free medium for 24 hours with or without verteporfin to prepare AI-TEV or control TEV (C-TEV), respectively. […] TEVs expressed several EV markers such as tumor susceptibility genes 101 (TSG101), CD81, and Alix, but had no negative marker calnexin (FIGS. 12 and 13). Since verteporfin inhibited both autophagy and YAP, it was expected that there was a significant difference in a proteomic cargo between C-TEV and AI-TEV.

4T1 cells = test: Cell viability assay (CCK-8) with verteporfin; assay type: cell-based, mouse; conditions: 24 hours
Procedure: as §2, §3

MOC2 cells = test: Cell viability assay (CCK-8) with verteporfin; assay type: cell-based, mouse; conditions: 24 hours
Procedure: as §2, §3

[1] = conditioned medium, 24 hours after verteporfin treatment

For Verteporfin, the calreticulin expression (cancer cells; cancer cells after verteporfin treatment, cell surface) was “dose-dependent increase”, the “release of heat shock protein 70 (HSP70)” value (cancer cells; [1]) was “dose-dependent increase” and the “release of high mobility group box 1 (HMGB1)” value (cancer cells; [1]) was “dose-dependent increase”. For the same substance, the YAP protein (YAP; 4T1 cells) was “YAP inhibition”, the YAP protein content (YAP; E.G7-OVA cells) was “decreased” and the YAP protein content (YAP; MOC2 cells) was “decreased”. For the same substance, the cell viability (E.G7-OVA cells; 20 ng/ml verteporfin) was “approximately 80%”, the “lowest dose of verteporfin that induced effective cell death” value (“lowest dose” for short) (E.G7-OVA cells; serum-free medium) was 20 ng/mL and the cell viability (4T1 cells; 200 ng/ml verteporfin) was “approximately 80%”. For the same substance, the “lowest dose” value (4T1 cells; serum-free medium) was 200 ng/mL, the cell viability (MOC2 cells; 200 ng/ml verteporfin) was “approximately 80%” and the “lowest dose” value (MOC2 cells; serum-free medium) was 200 ng/mL.
